Key:
B. breve ATCC 15700 = assay: Bacterial growth assay (OD600); assay type: cell-based, Bifidobacterium breve; conditions: carbohydrate 1% in sMRS+cysteine
Method: Subsequently, the cultures are passed twice on a semi-synthetic MRS medium ([…] which is supplemented with 1% (w/v) filter-sterilized glucose as the sole carbohydrate source. […] [table] After the 2nd pass in sMRS+glucose+cysteine, the cultures are washed once with 10 mL of sterile sMRS+cysteine (no carbohydrate), resuspended in 10 ml of sterile sMRS+ cysteine (no carbohydrate) and then used as a 1% inoculum. […] Cell growth is performed in 250 uL of sMRS+cysteine covered with 50 uL of mineral oil in a Bioscreen 100-well Honeycomb plate. Cell growth is monitored by measuring optical density at 600 nm (OD600) using a Bioscreen C Automated Microbiology Growth Curve Analysis System. The plate reader is operated in discontinuous mode, with absorbance readings performed in 30-minute intervals, and preceded by 30-second shaking intervals at maximum speed. Controls consist of inoculated medium lacking carbohydrate. […] All three plates include a positive control (glucose) and negative control (no carbohydrate). […] Maximum OD is determined by inspection of the corrected growth data. OD is determined by subtracting the initial corrected OD (time point 0) from the maximum corrected OD. Samples are grown in biologically independent triplicates and the resulting growth kinetic data are expressed as the mean of these replicates. […]

Caco-2 cells [1] = assay: Transepithelial resistance of Caco-2 cells (Ussing chambers); assay type: cell-based, human; conditions: more mature Caco-2 cells
From the text: FIGS. 20-22 illustrate the effect of LNnT, 2′FL, and 6′SL on cell resistance (transepithelial resistance), which is a marker for epithelial barrier function, wherein a higher resistance is associated with a higher barrier function. Epithelial cell resistance or barrier function is a measure of differentiated epithelial cell function. Specifically, as the cells mature, tighter junctions between the cells are formed resulting in a stronger epithelial cell barrier. This barrier prevents the movement of large molecules, bacteria, or viruses from one side of the barrier to the other, which could improve resistance to infection, sepsis, and NEC. […] Transepithelial resistance was measured using Transwell Snapwell inserts containing the desired cell culture and were transferred to modified Ussing chambers and bathed in modified Kreb's solution at 37 C with 95% oxygen and 5% carbon dioxide. Transepithelial resistance was measured as the passive transport of ions across the monolayers.

Caco-2 cells [2] = assay: Alkaline phosphatase activity in Caco-2 cells (cell differentiation); conditions: 72 hours, LNnT or 2′FL 20-2000 mg/L, 6′SL 40-4000 mg/mL
[3] = tested on: diluted feces of infants (fecal inoculum); assay: In vitro fermentation model simulating large bowel fermentation, infant fecal inoculum (pH, SCFA, fermentation rate); assay type: cell-based; conditions: for pH change from baseline: at 3, 6, and 12 h after inoculation, compared among substrates
Caco-2 cells [4] = assay: Sucrase activity in Caco-2 cells; assay type: cell-based, human; conditions: 72 hours, various levels
HT-29 cells = assay: Alkaline phosphatase activity in HT-29 cells (cell differentiation); conditions: 72 hours
B. infantis ATCC 15697 = assay: Bacterial growth assay (OD600); assay type: cell-based, Bifidobacterium infantis; conditions: carbohydrate 1% in sMRS+cysteine
Method: (§1) Subsequently, the cultures are passed twice on a semi-synthetic MRS medium ([…] which is supplemented with 1% (w/v) filter-sterilized glucose as the sole carbohydrate source. […] [table] After the 2nd pass in sMRS+glucose+cysteine, the cultures are washed once with 10 mL of sterile sMRS+cysteine (no carbohydrate), resuspended in 10 ml of sterile sMRS+ cysteine (no carbohydrate) and then used as a 1% inoculum. […] Cell growth is performed in 250 uL of sMRS+cysteine covered with 50 uL of mineral oil in a Bioscreen 100-well Honeycomb plate. Cell growth is monitored by measuring optical density at 600 nm (OD600) using a Bioscreen C Automated Microbiology Growth Curve Analysis System. The plate reader is operated in discontinuous mode, with absorbance readings performed in 30-minute intervals, and preceded by 30-second shaking intervals at maximum speed. Controls consist of inoculated medium lacking carbohydrate. […] All three plates include a positive control (glucose) and negative control (no carbohydrate). The OD600 data for each carbohydrate is corrected by subtracting the OD600 of the basal media (sMRS)+cysteine from the sample plate for each probiotic. Maximum OD is determined by inspection of the corrected growth data. OD is determined by subtracting the initial corrected OD (time point 0) from the maximum corrected OD. Samples are grown in biologically independent triplicates and the resulting growth kinetic data are expressed as the mean of these replicates. For the growth curve plots, OD600 vs. time is first plotted for the bacteria grown on medium lacking carbohydrate (sMRS). For all other carbohydrates, the OD600 data is corrected by subtracting the OD600 of sMRS.

B. infantis M-63 = assay: Bacterial growth assay (OD600); assay type: cell-based, Bifidobacterium infantis; conditions: carbohydrate 1% in sMRS+cysteine
Method: as §1

enteric nerve cells = assay: Peristalsis model using luminally perfused mouse colon
Method: In this Example, the effect of 2′-fucosyllactose (2′FL) or 3′-fucosyllactose (3′FL) on stimulating enteric nerve cells in the gastrointestinal tract of rodents is analyzed.
Specifically, a peristalsis model using luminally perfused mouse colon is used to test the stimulation effect of 2′FL or 3′FL on enteric nerve cells. Colon muscle is perfused with 2′FL or 3′FL, at concentrations of 1 mg/mL, 0.5 mg/mL, and 0.1 mg/mL, for 15 minutes. The frequency and amplitude of contractions of the muscle is analyzed.

[5] = tested on: Bifidobacterium spp. (12 strains); assay: Bacterial growth assay (OD600), all bifidobacteria strains tested; assay type: cell-based; conditions: carbohydrate 1% in sMRS+cysteine
Method: as §1

[6] = LNnT 20-2000 mg/L, 6′SL 40-4000 mg/mL
[7] = colon muscle perfused at 1, 0.5 and 0.1 mg/mL for 15 minutes

Row | SMILES | alkaline phosphatase activity (Caco-2 cells [2]) | fermentation rate [3] | sucrase activity per milligram of protein (Caco-2 cells [4]) | growth / ability to ferment (OD600) (B. infantis ATCC 15697) | growth / ability to ferment (OD600) (B. infantis M-63) | growth / ability to ferment (OD600) [5] | also measured
1 | CC(=O)N[C@H]1[C@H](O[C@H]2[C@@H](O)[C@@H](CO)O[C@@H](O[C@H]3[C@H](O)[C@@H](O)C(O)O[C@@H]3CO)[C@@H]2O)O[C@H](CO)[C@@H](O[C@@H]2O[C@H](CO)[C@H](O)[C@H](O)[C@H]2O)[C@@H]1O (mixture of isomers) [LNnT, Lacto-N-neotetraose] | trend toward an increase | about 4,488 i·tg/g of dry matter/hour | no apparent effect | grow well | grow well | – | growth / ability to ferment (OD600) (B. breve ATCC 15700): grow well; cell resistance (transepithelial resistance) (Caco-2 cells [1]): positive effect on cell resistance; pH change from baseline [3]: greatest; alkaline phosphatase activity per milligram of protein (HT-29 cells; [6]): trend toward an increase
2 | C[C@@H]1O[C@@H](O[C@H]2[C@H](O[C@H]3[C@H](O)[C@@H](O)C(O)O[C@@H]3CO)O[C@H](CO)[C@H](O)[C@@H]2O)[C@@H](O)[C@H](O)[C@@H]1O (stereo partly drawn) [2′FL, 2′-a-L-Fucopyranosyl-D-Lactose] | trend toward increased alkaline phosphatase activity | about 4,872 i·tg/g of dry matter/hour | trend toward sucrase activity | able to ferment | able to ferment | Only B. infantis ATCC 15697 and B. infantis M-63 are able to ferment | amplitude of contraction (enteric nerve cells; [7]): reduced consistently and in a dose response fashion; frequency of contraction (enteric nerve cells; [7]): reduced consistently and in a dose response fashion; stimulation of nerve cells (enteric nerve cells; without involving gut microbiota and/or their metabolites): direct stimulation of nerve cells; pH change from baseline [3]: greatest; alkaline phosphatase activity per milligram of protein (HT-29 cells; at the high dose (2000 mg/L)): significant increase in alkaline phosphatase activity
3 | CC(=O)N[C@H]1[C@H]([C@H](O)[C@H](O)CO)O[C@@](O[C@H]2[C@@H](O)[C@@H](CO)O[C@@H](O[C@H]3[C@H](O)[C@@H](O)C(O)O[C@@H]3CO)[C@@H]2O)(C(=O)O)C[C@@H]1O (some centres unmarked) [3′SL, 3′-sialyllactose] | – | – | – | able to ferment | able to ferment | Only B. infantis ATCC 15697 and B. infantis M-63 are able to ferment | –
4 | CC(=O)N[C@H]1C([C@H](O)[C@H](O)CO)O[C@@](OCC2O[C@@H](O[C@@H]3C(CO)OC(O)C(O)[C@H]3O)C(O)[C@@H](O)[C@H]2O)(C(=O)[O-])C[C@H]1O.[Na+] (some centres unmarked) [6′SL, a-(2-6′)-N-Acetylneuraminyl-lactose sodium salt] | no apparent effect | about 1,809 i·tg/g of dry matter/hour | no apparent effect | able to ferment | able to ferment | Only B. infantis ATCC 15697 and B. infantis M-63 are able to ferment | total SCFA production ([3]; 12 h of fermentation): greater (P<0.05) for the 6′SL and GOS substrates compared to 2′FL; total SCFA production ([3]; after 3 and 6 h of fermentation): lower (P<0.05) with 6′SL compared to GOS; alkaline phosphatase activity per milligram of protein (HT-29 cells; [6]): no apparent effect
5 | C[C@H](O)[C@@H](O)[C@@H](O)[C@H](O)C=O [L-fucose, L-(−) Fucose, reference compound] | – | – | – | not able to ferment | not able to ferment | None of the bifidobacteria are able to ferment | –
6 | CC(=O)N[C@H]1C(O)O[C@H](CO)[C@@H](O)[C@@H]1O (stereo partly drawn) [NAG, N-acetyl-D-glucosamine, reference compound] | – | – | – | – | – | Only B. breve ATCC 15700 is able to ferment | growth / ability to ferment (OD600) (B. breve ATCC 15700): able to ferment
7 | O=C(CO)[C@@H](O)[C@H](O)[C@H](O)CO [fructose, D-Fructose] | – | – | – | – | – | majority of bifidobacteria is able to ferment | –
8 | CC(=O)N[C@H]1[C@H]([C@H](O)[C@H](O)CO)OC(O)(C(=O)O)C[C@@H]1O (some centres unmarked) [sialic acid, N-acetylneuraminic acid, reference compound] | – | – | – | not able to ferment | not able to ferment | None of the bifidobacteria are able to ferment | –

Source: US12343355B2, “Methods for decreasing the incidence of necrotizing enterocolitis in infants, toddlers, or children using human milk oligosaccharides” (ABBOTT LABORATORIES, priority 2010, dated 2025)
